Assay results from patent US10538555B2, “Macrocyclic inhibitors of the PD-1/PD-L1 and CD80(B7-1)/PD-L1 protein/protein interactions” (BRISTOL-MYERS SQUIBB COMPANY, priority 2014, dated 2020).
*1 amine or outer side, *2 acyl side, *3 side chain or, on linkers, in order; H or OH if unused. Where a SMILES comes first, the peptide text is derived from it. Bridges are numbered along the chain shown (N, C = ends). [ ]: non-standard residue; d: D form. ξ: configuration not given here. X5 = O=C(O)CC[C@H](N[*:1])C(=O)C1C[C@H](O)C[C@H]1C(=O)[*:2]; Trp(1-CH2COOH) = N[C@@H](Cc1cn(CC(=O)O)c2ccccc12)C(=O)O; Phe(3,4,5-F3) = N[C@@H](Cc1cc(F)c(F)c(F)c1)C(=O)O; Phe(3,4-F2) = N[C@@H](Cc1ccc(F)c(F)c1)C(=O)O; NMePhe(4-F) = CN[C@@H](Cc1ccc(F)cc1)C(=O)O; Phe(4-F) = N[C@@H](Cc1ccc(F)cc1)C(=O)O; d(cisHyp) = O=C(O)[C@H]1C[C@@H](O)CN1; NMeY = CN[C@@H](Cc1ccc(O)cc1)C(=O)O; Hyp = O=C(O)[C@@H]1C[C@@H](O)CN1; NMeF = CN[C@@H](Cc1ccccc1)C(=O)O; X1 = O=C([C@H]1COCCN1[*:1])[*:2]; dNMeF = CN[C@H](Cc1ccccc1)C(=O)O; dPip(4-aza) = O=C(O)[C@H]1CNCCN1; hIle(4ξ) = CCC(C)C[C@H](N)C(=O)O; NMeE = CN[C@@H](CCC(=O)O)C(=O)O; dHyp = O=C(O)[C@H]1C[C@H](O)CN1; NMeNle = CCCC[C@H](NC)C(=O)O; NMeV = CN[C@H](C(=O)O)C(C)C; dPip = O=C(O)[C@H]1CCCCN1; NMeA = CN[C@@H](C)C(=O)O; Orn = NCCC[C@H](N)C(=O)O; Dab = NCC[C@H](N)C(=O)O; Dap = NC[C@H](N)C(=O)O; ξP = O=C(O)C1CCCN1; Sar = CNCC(=O)O

biological target: T1, Human PD-L1/PD-1 (Homo sapiens, UniProt Q9NZQ7); assay: HTRF Human PD-L1/PD-1 binding assay (PD-1-Ig/PD-L1-His); conditions: PD-L1-His 10 nM, PD-1-Ig 20 nM; class symbol; read-out: HTRF Human PD-L1/PD-1 Binding Assay IC50 Range
T1 construct: TVMV protease cleavage site (C); made in house; host or cells: HEK293T cells
T1 sequence (Q9NZQ7 with tags, fused parts or gaps): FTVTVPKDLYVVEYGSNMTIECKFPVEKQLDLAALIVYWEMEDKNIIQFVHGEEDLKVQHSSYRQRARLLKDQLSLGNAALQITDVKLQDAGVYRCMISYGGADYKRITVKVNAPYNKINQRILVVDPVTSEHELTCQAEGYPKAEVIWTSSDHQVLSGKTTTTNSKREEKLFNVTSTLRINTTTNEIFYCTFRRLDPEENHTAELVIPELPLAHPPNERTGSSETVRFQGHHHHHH
Procedure, shortened: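 Inhibitors were preincubated 15 min with human PD-L1(18-239)-His (10 nM final), then PD-1(25-167)-Ig (20 nM final) was added for 15 min in dPBS/0.1% BSA/0.05% Tween-20. Eu-cryptate anti-Ig (1 nM) and APC anti-His (20 nM) were added; 665/620 nm ratio read after 30 min.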

| IC50 [nM] | Structure (SMILES) |
| --- | --- |
| 1 to 9.9 | CCCC[C@H]1C(=O)N2C[C@H](O)C[C@@H]2C(=O)N[C@@H](CC(=O)O)C(=O)N[C@@H](C(C)C)C(=O)N(C)[C@H](Cc2ccccc2)C(=O)N[C@@H](CCCN)C(=O)N2C[C@H](O)C[C@@H]2C(=O)N[C@@H](Cc2c[nH]c3ccccc23)C(=O)N[C@@H](Cc2ccc(O)cc2)C(=O)N[C@@H](CCCN)C(=O)N[C@H](C(=O)NCC(N)=O)CSCC(=O)N[C@@H](Cc2ccc(F)c(F)c2)C(=O)N(C)[C@@H](Cc2ccccc2)C(=O)N1C [Example 9309] ({CH2CO}-[Phe(3,4-F2)][NMeF][NMeNle][d(cisHyp)]DV[dNMeF][Orn][d(cisHyp)]WY[Orn]CG-NH2; thioether N-13) |
| 1 to 9.9 | CCCC[C@H]1C(=O)N2CCC[C@@H]2C(=O)N[C@@H](CC(=O)O)C(=O)N[C@@H](C(C)C)C(=O)N(C)[C@@H](Cc2ccccc2)C(=O)N[C@@H](CCC(=O)O)C(=O)N2CCCC[C@@H]2C(=O)N[C@@H](Cc2c[nH]c3ccccc23)C(=O)N[C@@H](Cc2ccc(O)cc2)C(=O)N[C@@H](CC(C)C)C(=O)N[C@H](C(=O)NCC(N)=O)CSCC(=O)N[C@@H](Cc2cc(F)c(F)c(F)c2)C(=O)N(C)[C@@H](Cc2ccc(F)cc2)C(=O)N1C [Example 10561] ({CH2CO}-[Phe(3,4,5-F3)][NMePhe(4-F)][NMeNle][dP]DV[NMeF]E[dPip]WYLCG-NH2; thioether N-13) |
| 1 to 9.9 | CCCC[C@H]1C(=O)N2CCOC[C@@H]2C(=O)N[C@@H](CC(=O)O)C(=O)N[C@@H](C(C)C)C(=O)N(C)[C@@H](Cc2ccccc2)C(=O)N[C@@H](Cc2ccc(O)cc2)C(=O)N2CCOC[C@@H]2C(=O)N[C@@H](Cc2c[nH]c3ccccc23)C(=O)N[C@@H](Cc2ccc(O)cc2)C(=O)N[C@@H](CC(C)C)C(=O)N[C@H](C(=O)NCC(N)=O)CSCC(=O)N[C@@H](Cc2cc(F)c(F)c(F)c2)C(=O)N(C)[C@@H](Cc2ccccc2)C(=O)N1C [Example 9283] ({CH2CO}-[Phe(3,4,5-F3)][NMeF][NMeNle][X1]DV[NMeF]Y[X1]WYLCG-NH2; thioether N-13) |
| 1 to 9.9 | CCCC[C@H]1C(=O)N2C[C@H](O)C[C@@H]2C(=O)N[C@@H](CC(=O)O)C(=O)N[C@@H](C(C)C)C(=O)N(C)[C@H](Cc2ccccc2)C(=O)N[C@@H](CCC(N)=O)C(=O)N2C[C@H](O)C[C@@H]2C(=O)N[C@@H](Cc2c[nH]c3ccccc23)C(=O)N[C@@H](Cc2ccc(O)cc2)C(=O)N[C@@H](CCCN)C(=O)N[C@H](C(=O)NCC(N)=O)CSCC(=O)N[C@@H](Cc2ccc(F)c(F)c2)C(=O)N(C)[C@@H](Cc2ccccc2)C(=O)N1C [Example 9303] ({CH2CO}-[Phe(3,4-F2)][NMeF][NMeNle][d(cisHyp)]DV[dNMeF]Q[d(cisHyp)]WY[Orn]CG-NH2; thioether N-13) |
| 10 to 99.9 | CCCC[C@H]1C(=O)N2CCOC[C@@H]2C(=O)N[C@@H](CC(=O)O)C(=O)N[C@@H](C(C)C)C(=O)N(C)[C@@H](Cc2ccccc2)C(=O)N[C@@H](CCN)C(=O)N2CCOC[C@@H]2C(=O)N[C@@H](Cc2c[nH]c3ccccc23)C(=O)N[C@@H](Cc2ccc(O)cc2)C(=O)N[C@@H](CCC(=O)O)C(=O)N[C@H](C(=O)NCC(N)=O)CSCC(=O)N[C@@H](Cc2cc(F)c(F)c(F)c2)C(=O)N(C)[C@@H](Cc2ccc(O)cc2)C(=O)N1C [Example 10628] ({CH2CO}-[Phe(3,4,5-F3)][NMeY][NMeNle][X1]DV[NMeF][Dab][X1]WYECG-NH2; thioether N-13) |
| 1 to 9.9 | CCCC[C@H]1C(=O)N(C)[C@@H](CCCC)C(=O)N[C@@H](CCCN)C(=O)N[C@H](C(=O)NCC(N)=O)CSCC(=O)N[C@@H](Cc2ccc(OC)cc2)C(=O)N(C)[C@@H](C)C(=O)N[C@@H](CC(N)=O)C(=O)N2CCC[C@H]2C(=O)N[C@@H](Cc2cnc[nH]2)C(=O)N[C@@H](CCC(=O)O)C(=O)C2C[C@H](O)C[C@H]2C(=O)N[C@@H](Cc2c[nH]c3ccccc23)C(=O)N[C@@H](CCN)C(=O)N[C@@H](Cc2c[nH]c3ccccc23)C(=O)N1C (stereo partly drawn) [Example 7087] ({CH2CO}-Y(Me)[NMeA]NPH[X5]W[Dab]W[NMeNle][NMeNle][Orn]CG-NH2; thioether N-13) |
| 1 to 9.9 | CCCC[C@H]1C(=O)N2C[C@H](O)C[C@@H]2C(=O)N[C@@H](CC(=O)O)C(=O)N[C@@H](C(C)C)C(=O)N(C)[C@@H](Cc2ccccc2)C(=O)N[C@@H](CCC(=O)O)C(=O)N2CCNC[C@@H]2C(=O)N[C@@H](Cc2c[nH]c3ccccc23)C(=O)N[C@@H](Cc2ccc(O)cc2)C(=O)N[C@@H](CCCCN)C(=O)N[C@H](C(=O)NCC(N)=O)CSCC(=O)N[C@@H](Cc2cc(F)c(F)c(F)c2)C(=O)N(C)[C@@H](Cc2ccccc2)C(=O)N1C [Example 10164] ({CH2CO}-[Phe(3,4,5-F3)][NMeF][NMeNle][d(cisHyp)]DV[NMeF]E[dPip(4-aza)]WYKCG-NH2; thioether N-13) |
| 1000 to 10000 | CCCC[C@H]1C(=O)N2CCC[C@@H]2C(=O)N[C@@H](CC(=O)O)C(=O)N[C@@H](C(C)C)C(=O)N(C)[C@@H](C(C)C)C(=O)N[C@@H](Cc2ccc(O)cc2)C(=O)N2CCCC[C@@H]2C(=O)N[C@@H](Cc2c[nH]c3ccccc23)C(=O)N[C@@H](Cc2ccc(O)cc2)C(=O)N[C@@H](CC(C)CC)C(=O)N[C@H](C(=O)NCC(N)=O)CSCC(=O)N[C@@H](Cc2ccc(F)cc2)C(=O)N(C)[C@@H](Cc2ccccc2)C(=O)N1C (stereo partly drawn) [Example 9242] ({CH2CO}-[Phe(4-F)][NMeF][NMeNle][dP]DV[NMeV]Y[dPip]WY[hIle(4ξ)]CG-NH2; thioether N-13) |
| 1 to 9.9 | CCCC[C@H]1C(=O)N(C)[C@@H](CCCC)C(=O)N[C@@H](CCC(=O)O)C(=O)N[C@H](C(=O)NCC(N)=O)CSCC(=O)N[C@@H](Cc2ccc(O)cc2)C(=O)N(C)[C@@H](C)C(=O)N[C@@H](CC(N)=O)C(=O)N2CCCC2C(=O)N[C@@H](Cc2cnc[nH]2)C(=O)N[C@@H](CCC(N)=O)C(=O)N2C[C@H](O)C[C@H]2C(=O)N[C@@H](Cc2c[nH]c3ccccc23)C(=O)N[C@@H](CCN)C(=O)N[C@@H](Cc2cn(CC(=O)O)c3ccccc23)C(=O)N1C (stereo partly drawn) [Example 6288] ({CH2CO}-Y[NMeA]N[ξP]HQ[Hyp]W[Dab][Trp(1-CH2COOH)][NMeNle][NMeNle]ECG-NH2; thioether N-14) |
| 1 to 9.9 | CCCC[C@H]1C(=O)N(C)[C@@H](CCCC)C(=O)N[C@@H](CC(=O)O)C(=O)N[C@H](C(N)=O)CSCC(=O)N[C@@H](Cc2ccc(O)cc2)C(=O)N(C)[C@@H](C)C(=O)N[C@@H](CC(N)=O)C(=O)N2CCC[C@H]2C(=O)N[C@@H](CN)C(=O)N[C@@H](CC(C)C)C(=O)N2C[C@H](O)C[C@H]2C(=O)N[C@@H](Cc2c[nH]c3ccccc23)C(=O)N[C@@H](CO)C(=O)N[C@@H](Cc2cn(CC(=O)O)c3ccccc23)C(=O)N1C [Example 6334] ({CH2CO}-Y[NMeA]NP[Dap]L[Hyp]WS[Trp(1-CH2COOH)][NMeNle][NMeNle]DC-NH2; thioether N-14) |
| 1 to 9.9 | CCCC[C@H]1C(=O)N2CCC[C@@H]2C(=O)N[C@@H](CC(=O)O)C(=O)N[C@@H](C(C)C)C(=O)N(C)[C@@H](Cc2ccccc2)C(=O)N[C@@H](Cc2ccc(O)cc2)C(=O)N2C[C@@H](O)C[C@@H]2C(=O)N[C@@H](Cc2c[nH]c3ccccc23)C(=O)N[C@@H](Cc2ccc(O)cc2)C(=O)N[C@@H](CCCN)C(=O)N[C@H](C(=O)NCC(N)=O)CSCC(=O)N[C@@H](Cc2cc(F)c(F)c(F)c2)C(=O)N(C)[C@@H](Cc2ccccc2)C(=O)N1C [Example 9288] ({CH2CO}-[Phe(3,4,5-F3)][NMeF][NMeNle][dP]DV[NMeF]Y[dHyp]WY[Orn]CG-NH2; thioether N-13) |
| 1 to 9.9 | CCCC[C@H]1C(=O)N(C)[C@@H](CCCC)C(=O)N[C@@H](CN)C(=O)N[C@H](C(=O)NCC(N)=O)CSCC(=O)N[C@@H](Cc2ccc(O)cc2)C(=O)N(C)[C@@H](C)C(=O)N[C@@H](CC(=O)O)C(=O)N2CCC[C@H]2C(=O)N[C@@H](CN)C(=O)N[C@@H](CCC(N)=O)C(=O)N2C[C@H](O)C[C@H]2C(=O)N[C@@H](Cc2c[nH]c3ccccc23)C(=O)N[C@@H](CO)C(=O)N[C@@H](Cc2cn(CC(=O)O)c3ccccc23)C(=O)N1C [Example 5226] ({CH2CO}-Y[NMeA]DP[Dap]Q[Hyp]WS[Trp(1-CH2COOH)][NMeNle][NMeNle][Dap]CG-NH2; thioether N-14) |

same assay, conditions: PD-L1-His 10 nM, PD-1-Ig 20 nM; read-out: HTRF Human PD-L1/PD-1 Binding Assay IC50

| IC50 [nM] | Structure (SMILES) |
| --- | --- |
| 11.7 | CCCC[C@H]1C(=O)N2C[C@H](O)C[C@@H]2C(=O)N[C@@H](CC(=O)O)C(=O)N[C@@H](C(C)C)C(=O)N(C)[C@@H](Cc2ccccc2)C(=O)N[C@@H](CC(N)=O)C(=O)N2C[C@H](O)C[C@@H]2C(=O)N[C@@H](Cc2c[nH]c3ccccc23)C(=O)N[C@@H](Cc2ccc(O)cc2)C(=O)N[C@@H](CCCN)C(=O)N[C@H](C(=O)NCC(N)=O)CSCC(=O)N[C@@H](Cc2ccc(F)c(F)c2)C(=O)N(C)[C@@H](Cc2ccccc2)C(=O)N1C [Example 9304] |
| 11 | CC(C)C[C@@H]1NC(=O)[C@H](Cc2ccc(O)cc2)NC(=O)[C@H](Cc2c[nH]c3ccccc23)NC(=O)[C@H]2COCCN2C(=O)[C@H](Cc2ccc(O)cc2)NC(=O)[C@H](Cc2ccccc2)N(C)C(=O)[C@H](C(C)C)NC(=O)[C@H](CC(=O)O)NC(=O)[C@H]2C[C@@H](O)CN2C(=O)[C@H](CCC(=O)O)N(C)C(=O)[C@H](Cc2ccccc2)N(C)C(=O)[C@H](Cc2cc(F)c(F)c(F)c2)NC(=O)CSC[C@@H](C(=O)NCC(N)=O)NC1=O [Example 10176] ({CH2CO}-[Phe(3,4,5-F3)][NMeF][NMeE][d(cisHyp)]DV[NMeF]Y[X1]WYLCG-NH2; thioether N-13) |
| 101 | CCCC[C@H]1C(=O)N(C)[C@@H](CCCC)C(=O)N[C@@H](CC(C)C)C(=O)N[C@H](C(=O)NCC(N)=O)CSCC(=O)N[C@@H](Cc2ccc(O)cc2)C(=O)N(C)[C@@H](C)C(=O)N[C@@H](CC(N)=O)C(=O)N2CCC[C@H]2C(=O)N(C)CC(=O)N[C@@H](CCC(N)=O)C(=O)N2C[C@H](O)C[C@H]2C(=O)N[C@@H](Cc2c[nH]c3ccccc23)C(=O)N[C@@H](CO)C(=O)N[C@@H](Cc2c[nH]c3ccccc23)C(=O)N1C [Example 5262] ({CH2CO}-Y[NMeA]NP[Sar]Q[Hyp]WSW[NMeNle][NMeNle]LCG-NH2; thioether N-14) |
